Measurements: US20160271028A1, “NOVEL USE OF PANDURATIN DERIVATIVES OR EXTRACT OF KAEMPFERIA PANDURATA COMPRISING THE SAME” (Newtree Co., Ltd., priority 2007, published 2016)

Experiments:
[1] = tested on: MMP-1; experiment: MMP-1 expression in fibroblasts by Western blotting and RT-PCR; assay type: cell-based; details: for expression of MMP-1 mRNAs: RT-PCR; for expression of MMP-1 proteins: Western blotting; for MMP-1 inhibition and procollagen promotion activity compared with the control substance EGCG: Western blotting and RT-PCR, covers MMP-1 and procollagen
Experimental: (§1) MMP-1 inhibition activity and procollagen synthesis promotion effect of the Kaempferia pandurata ethanol extract prepared in Example 1 were measured by Western blotting and reverse transcriptase-polymerase chain reaction (RT-PCR).
(§2) Specifically, proteins were extracted from cultured fibroblasts and quantitated using a protein assay reagent (Bio-Rad Laboratories Inc., Hercules, Calif., USA). For Western blotting, the proteins were heated for 3 minutes and, after cooling, transferred to a nitrocellulose membrane (Amersham International, Little Chalfont, England) through electrophoresis in 10% SDS-PAGE. The membrane was saturated with 5% skim milk in TBST (10 mM Tris, pH 7.5, 100 mM NaCl, 0.1% Tween 20). After blotting for 2 hours using primary antibodies (diluted to 1:1000), followed by washing with TBST, blotting was performed for 2 hours using secondary antibodies (diluted to 1:2000). After washing with TBST for 3 times, the blotted antibodies were analyzed using an ECL detection system (Amersham International, Little Chalfont, England).
(§3) For RT-PCR, RNAs were isolated from fibroblasts using TRIZOL (Invitrogen, USA). The isolated RNAs were quantitated using MMP-1 and procollagen primers and Taq polymerase. Specifically, RT-PCR was carried out using MMP-1 primer for 25 cycles, each cycle consisting of 30 seconds at 94° C., 1 minute at 50° C. and 1 minute at 72° C. And RT-PCR was carried out using procollagen primer for 28 cycles, each cycle consisting of 30 seconds at 94° C., 1 minute at 60° C. and 1 minute at 72° C. Then, after electrophoresis using 1% agarose gel, expression of mRNA for MMP-1 and procollagen was analyzed through ethidium bromide (EtBr) illumination.
(§4) MMP-1 inhibition activity and procollagen synthesis promotion effect of the panduratin derivatives prepared in Examples 2 through 4 were measured by Western blotting and RT-PCR in the same manner as Test Example 2-1.

[2] = tested on: fibroblasts; experiment: MTT assay, cell proliferation of fibroblasts; assay type: cell-based
Experimental: MTT assay [3-(4,5-dimethylthiazol-2-yl)-2,5-diphenyltetrazolium bromide reduction method] was performed on fibroblasts to evaluate cell proliferation of the panduratin derivatives prepared in Examples 2 through 4. Epigallocatechin-3-O-gallate (EGCG), which is known to have skin wrinkle improvement effect, was selected as control substance.

[3] = tested on: procollagen; experiment: Procollagen synthesis in fibroblasts by Western blotting and RT-PCR; assay type: cell-based; details: for expression of procollagen mRNAs: RT-PCR; for expression of procollagen proteins: Western blotting
Experimental: as §1, §2, §3, §4

[4] = tested on: extracellular-regulated protein kinase (ERK); experiment: UV-induced activation (phosphorylation) of ERK in fibroblasts, Western blotting; assay type: cell-based, Human; details: CCD-986sk fibroblasts, UV 20 mJ/cm^2, 24 h pretreatment
Experimental: (§5) Human skin fibroblasts (CCD-986sk, ATCC, Manassas, Va., USA) were cultured in DMEM (Gibco, Grand Island, N.Y., USA). The fibroblasts were cultured on a 10 cm Petri dish (SPL, Seoul, Korea) to a concentration of 80% and further cultured for 24 hours in serum-free culture medium. Then, the cells were cultured for 24 hours in serum-free DMEM containing the panduratin A of Example 2. After replacing the culture medium with 5 mL of phosphate-buffered saline (PBS), the cells were exposed to UV (20 mJ/cm^2). Cells that were not exposed to UV were used as negative control group, and cells treated with EGCG were used as positive control group.
(§6) The fibroblasts were lysed in RIPA buffer (Sigma-Aldrich Co., St. Louis, Mo., USA) and proteins were quantitated using a protein assay reagent (Bio-Rad Laboratories Inc., Hercules, Calif., USA). […] After washing with TBST for 3 times, the blotted antibodies were analyzed using an ECL detection system (Amersham International, Little Chalfont, England). The detection level was measured using the software RFLPscan version 2.1.
(§7) Through this procedure, the change of activity of extracellular-regulated protein kinase (ERK), Jun-N-terminal kinase (JNK) and p38 kinase, which belong to the MAPKs, was measured.

[5] = tested on: c-Jun; experiment: c-Jun activity in UV-exposed fibroblasts, Western blotting; assay type: cell-based, Human
Experimental: as §5
(§8) The fibroblasts were lysed in RIPA buffer (Sigma-Aldrich Co., St. Louis, Mo., USA) and proteins were quantitated using a protein assay reagent (Bio-Rad Laboratories Inc., Hercules, Calif., USA). For Western blotting, the proteins were heated for 3 minutes and, after cooling, transferred to a nitrocellulose membrane (Amersham International, Little Chalfont, England) through electrophoresis in 10% SDS-PAGE. The membrane was saturated with 5% skim milk in TBST (10 mM Tris, pH 7.5, 100 mM NaCl, 0.1% Tween 20). […] After washing with TBST for 3 times, the blotted antibodies were analyzed using an ECL detection system (Amersham International, Little Chalfont, England). The detection level was measured using the software RFLPscan version 2.1. […]

[6] = tested on: c-Fos; experiment: c-Fos activity in UV-exposed fibroblasts, Western blotting; assay type: cell-based, Human
Experimental: as §5, §8

[7] = tested on: Jun-N-terminal kinase (JNK); experiment: UV-induced activation (phosphorylation) of JNK in fibroblasts, Western blotting; assay type: cell-based, Human; details: CCD-986sk fibroblasts, UV 20 mJ/cm^2, 24 h pretreatment
Experimental: as §5, §6, §7

[8] = tested on: hairless mice (Hos: HR-1); experiment: Wrinkle improvement in UV-exposed hairless mice, application on skin; assay type: in vivo
Experimental: Forty eight 6-week-old female hairless mice (Hos: HR-1) were accustomed for a week and randomly divided into 6 groups, 8 per each. The hairless mice (Hos:HR-1) were exposed to UV for 8 weeks. UV irradiation was carried out 3 times a week, from 1 MED (1 MED=50 mJ/cm^2) to 4 MED, until the end of the test. The 6 test groups were: non UV-treated group, UV-treated group, UV- and Kaempferia pandurata ethanol extract (0.1%, 0.5%)-treated group, and UV- and panduratin A (1 mM, 5 mM)-treated group. Each sample was dissolved in a mixture solvent of ethanol and polyethylene glycol (7:3, v/v) and 50 μL was applied on the back of the mice every day for 8 weeks. For the non UV-treated group and the UV-treated group, 50 μL of a mixture of ethanol and polyethylene glycol (7:3, v/v) was applied.
In order to investigate wrinkle prevention effect, skin replicas were taken using silicone polymer (SILFLO Impression Material, Flexico, England). The image files of the skin replicas were subjected to wrinkle evaluation using the computer image analysis software Skin Visiometer SV 600 (Courage+Khazaha Electronic, Kln, Germany) Rt, Rm, Rz and Ra values (Rt: the distance from the highest and lowest portions on the skin surface, Rm: the maximum Rt value of 5 measurements, Rz: the mean Rt value of 5 measurements, Ra: the arithmetic mean surface roughness) were determined.

[9] = tested on: p38 kinase; experiment: UV-induced activation (phosphorylation) of p38 kinase in fibroblasts, Western blotting; assay type: cell-based, Human; details: CCD-986sk fibroblasts, UV 20 mJ/cm^2, 24 h pretreatment
Experimental: as §5, §6, §7

[10] = tested on: AP-1; experiment: Electrophoretic mobility shift assay (EMSA), DNA binding activity of AP-1; assay type: cell-based, Human; details: nuclear proteins of UV-exposed fibroblasts
Experimental: as §5
Electrophoretic mobility shift assay (EMSA) was performed to measure the DNA binding activity of AP-1. Specifically, the fibroblasts, which were cultured in Test Example 3-1, to which panduratin A was added and which were exposed to UV, were washed with PBS and collected. […] Gel shift assay was carried out using quantitated nuclear proteins according to the manufacturer's instructions (Gel Shift Kit System; Panomics, Fremont, Calif., USA). Then, the detected proteins were analyzed with an ECL detection system (Amersham International, Little Chalfont, England) and the detection level was measured using the software RFLPscan version 2.1.
DNA binding activity of AP-1 was determined through this procedure.

[11] = application on skin, 8 weeks, p<0.05

| Compound | expression of MMP-1 mRNAs [1] | expression of MMP-1 proteins [1] | MMP-1 inhibition and procollagen promotion activity compared with the control substance EGCG [1] | Proliferation effect (%) ([2]; 0.001 μM) | Proliferation effect (%) ([2]; 0.01 μM) | Proliferation effect (%) ([2]; 0.1 μM) | Proliferation effect (%) ([2]; 1 μM) | Proliferation effect (%) ([2]; 10 μM) | Proliferation effect (%) ([2]; 50 μM) | expression of procollagen mRNAs [3] | expression of procollagen proteins [3] | other results |
| --- | --- | --- | --- | --- | --- | --- | --- | --- | --- | --- | --- | --- |
| COc1cc(O)cc(O)c1C(=O)[C@@H]1[C@H](CC=C(C)C)C(C)=CC[C@H]1c1ccccc1 [Isopanduratin A, isopanduratin A] | decrease of MMP-1 proteins and mRNAs in a concentration-dependent manner | decrease of MMP-1 proteins and mRNAs in a concentration-dependent manner | better activity than the control substance EGCG | 102 | 102 | 110 | 120 | 124 | 130 | increased in a concentration-dependent manner | increased in a concentration-dependent manner |  |
| Epigallocatechin-3-O-gallate [EGCG, reference compound] |  |  |  | 102 | 104 | 107 | 119 | 120 | 126 |  |  |  |
| COc1cc(O)c(C(=O)[C@@H]2[C@H](CC=C(C)C)C(C)=CC[C@H]2c2ccccc2)c(O)c1 [Panduratin A, panduratin A] | decrease of MMP-1 proteins and mRNAs in a concentration-dependent manner | decrease of MMP-1 proteins and mRNAs in a concentration-dependent manner | better activity than the control substance EGCG | 103 | 104 | 111 | 120 | 126 | 131 | increased in a concentration-dependent manner | increased in a concentration-dependent manner | activation of ERK [4]: suppressed in a concentration-dependent manner; c-Jun activity [5]: inhibited c-Jun and c-Fos activity in a concentration-dependent manner; c-Fos activity [6]: inhibited c-Jun and c-Fos activity in a concentration-dependent manner; activation of JNK [7]: suppressed in a concentration-dependent manner; wrinkling (skin replicas) as compared to the UV-treated group ([8]; 50 μL on the back daily for 8 weeks, extract 0.1% and 0.5%, panduratin A 1 mM and 5 mM): remarkably decreased wrinkling; Ra value (arithmetic mean surface roughness) [8, 11]: significantly decreased; Rm value (maximum Rt value of 5 measurements) [8, 11]: significantly decreased; Rt value (distance from the highest and lowest portions on the skin surface) [8, 11]: significantly decreased; Rz value (mean Rt value of 5 measurements) [8, 11]: significantly decreased; activation of p38 kinase [9]: suppressed in a concentration-dependent manner; binding of AP-1 to DNA [10]: inhibited binding of AP-1 to DNA in a concentration-dependent manner |
| CC(C)=CC[C@@H]1C(C)=CC[C@@H](c2ccccc2)[C@@H]1C(=O)c1c(O)cc(O)cc1O [4-Hydroxypanduratin A, 4-hydroxypanduratin A] | decrease of MMP-1 proteins and mRNAs in a concentration-dependent manner | decrease of MMP-1 proteins and mRNAs in a concentration-dependent manner | better activity than the control substance EGCG | 101 | 102 | 109 | 119 | 121 | 128 | increased in a concentration-dependent manner | increased in a concentration-dependent manner |  |
